# Measurements published in the NIST ThermoML archive (doi:10.1016/j.tca.2014.11.008).
# ± gives the expanded uncertainty stated by the source.
# Settings: Crystal; visual observation
smiles,measurement,value
O=C(O)c1ccsc1 [β-thiophenecarboxylic acid],Normal melting temperature,138.70 ± 1.3 °C
